Measured values reported in ChEMBL document CHEMBL5223135, “Guanidine-based β amyloid precursor protein cleavage enzyme 1 (BACE-1) inhibitors for the Alzheimer's disease (AD): A review” (Bioorg Med Chem, 2022).

How the values were obtained:
[1] = Permeability in human Caco-2 cells; type: ADME, cell-based; conditions: read-out: permeability
[2] = n-Octanol/water partition coefficient, logP of the compound; type: physicochemical
[3] = Aqueous solubility, logS of the compound; type: physicochemical; conditions: buffer

Structure (SMILES) | Papp [1] [×10⁻⁶ cm/s] | logP [2] | logS0 [3]
C(=N\Nc1nnc(-c2cccs2)c(-c2cccs2)n1)/c1cc2ccccc2[nH]1 | 0.53 |  | 
O=[N+]([O-])c1ccc(-n2cc(COc3ccc(/C=N/Nc4nnc(-c5ccccc5)c(-c5ccccc5)n4)cc3)nn2)cc1 | 0.53 |  | 
Cn1c(N/N=C/c2cccc(Cl)c2Cl)nc2ccccc2c1=O | 0.57 |  | 
N=C(Nc1cnc(F)c(F)c1)Nc1cnc(F)c(F)c1 |  | 1.76 | -2.73
